TGI and GI50 data for 18 compounds are collected here from PubChem BioAssay (NCI).

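Grown in 96-well plates, cells were treated for 48 hours with each compound at five concentrations. Insufficient inhibition: endpoint recorded as highest concentration tested. GI50 = concentration required for 50% inhibition of growth. TGI: concentration producing complete growth inhibition.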

Test systems include U251 CNS; UACC-62 melanoma; EKVX NSCLC; NCI/ADR-RES ovarian; A498 renal; OVCAR-4 ovarian; SNB-19 CNS; SNB-75 CNS; UO-31 renal; SR leukemia.
Holding throughout (experiment): growth of human tumour cells (NCI), 48 h

For the compound `CCOC(=O)/C=C/c1c(C)[nH]c(=O)[nH]c1=O`, the TGI in the assay with U251 CNS was more than 250 µM; with UACC-62 melanoma, more than 250 µM; with EKVX NSCLC, more than 250 µM; with NCI/ADR-RES ovarian, more than 250 µM; in the assay with A498 renal, more than 250 µM; with OVCAR-4 ovarian, more than 158 µM. The TGI with SNB-19 CNS, in the assay with SNB-75 CNS and in the assay on UO-31 renal was more than 250 µM throughout.
Regarding `O=C(NN1C(=O)C(Cl)C1c1cccc([N+](=O)[O-])c1)c1ccccc1O` (stereo not given), the TGI in the assay on U251 CNS, in the assay with SR leukemia, with UACC-62 melanoma, in the assay with EKVX NSCLC, in the assay with OVCAR-4 ovarian and with SNB-19 CNS was more than 100 µM each time. In addition, the TGI in the assay with SNB-75 CNS and in the assay with UO-31 renal was more than 100 µM in each case.
Regarding `c1ccc2c(c1)NCc1cc3ccccc3nc1O2`, the TGI in the assay on U251 CNS, in the assay on UACC-62 melanoma, in the assay with EKVX NSCLC, in the assay with NCI/ADR-RES ovarian, in the assay on A498 renal and in the assay on OVCAR-4 ovarian was more than 100 µM in each case. Besides, the TGI with SNB-19 CNS is more than 100 µM; in the assay with SNB-75 CNS, more than 100 µM; with UO-31 renal, more than 31.6 µM.
For `N#[N+]c1c([O-])c2ccccc2c2ccccc12`, the TGI with U251 CNS was more than 100 µM; in the assay on SR leukemia it was more than 100 µM; in the assay on UACC-62 melanoma, 69.7 µM; in the assay with EKVX NSCLC, 72.8 µM; in the assay on NCI/ADR-RES ovarian it was more than 100 µM; in the assay on A498 renal, 46.9 µM. Further, the TGI with OVCAR-4 ovarian was more than 100 µM; in the assay on SNB-19 CNS, more than 100 µM; with SNB-75 CNS, 82.9 µM; in the assay with UO-31 renal it was more than 100 µM.
For the compound `O=C1C(CO)=C[C@H](O)[C@H]2O[C@@H]12`, the TGI worked out at 381 µM with U251 CNS; 215 µM with UACC-62 melanoma; 215 µM in the assay on EKVX NSCLC; 449 µM with NCI/ADR-RES ovarian; 519 µM with A498 renal; 317 µM in the assay with OVCAR-4 ovarian. The TGI in the assay with SNB-19 CNS is more than 625 µM; in the assay with SNB-75 CNS, 561 µM; in the assay with UO-31 renal it was 507 µM.
Take `Cc1cn(-c2cccc(NC(=O)c3ccc(C)c(Nc4nccc(-c5cccnc5)n4)c3)c2)cn1`: the GI50 in the assay with U251 CNS is 1.69 µM; in the assay with SR leukemia, 2.08 µM; in the assay with UACC-62 melanoma it was 1.65 µM; in the assay with EKVX NSCLC, 2.16 µM; with NCI/ADR-RES ovarian, 2.83 µM; in the assay on A498 renal, 10.9 µM. Further, the GI50 in the assay with OVCAR-4 ovarian was 1.71 µM; in the assay on SNB-19 CNS it was 2.4 µM; in the assay on SNB-75 CNS, 1.59 µM; in the assay on UO-31 renal, 1.5 µM. Moreover, the TGI in the assay with U251 CNS is 3.39 µM; in the assay on SR leukemia it was 5.02 µM; in the assay with UACC-62 melanoma, 3.35 µM; with EKVX NSCLC it was 6 µM; with NCI/ADR-RES ovarian it was 10.1 µM; in the assay with A498 renal it was 23 µM. Also, the TGI in the assay on OVCAR-4 ovarian is 3.11 µM; in the assay with SNB-19 CNS it was more than 100 µM; in the assay with SNB-75 CNS it was 2.97 µM; with UO-31 renal, 3.05 µM.
On to `C/C(=N\NC(=S)N1CCC(N2CCCCC2)CC1)c1ccccn1`, for which the TGI with U251 CNS is 9.86 µM; with SR leukemia, 9.74 µM; in the assay on UACC-62 melanoma, 10.7 µM; with EKVX NSCLC, 12.1 µM; with NCI/ADR-RES ovarian, 5.67 µM; in the assay on A498 renal, 5.21 µM. Further, the TGI stood at 16.7 µM in the assay with OVCAR-4 ovarian, 11.3 µM in the assay with SNB-19 CNS, 11.2 µM with SNB-75 CNS and 3.3 µM with UO-31 renal.
For the compound `O=c1nc2ccc([N+](=O)[O-])cc2[n+]([O-])[nH]1`, the TGI with U251 CNS, with SR leukemia, in the assay with UACC-62 melanoma, with EKVX NSCLC, in the assay on NCI/ADR-RES ovarian and in the assay on A498 renal was more than 100 µM each time. Moreover, the TGI with OVCAR-4 ovarian, in the assay with SNB-19 CNS, in the assay with SNB-75 CNS and in the assay on UO-31 renal was more than 100 µM throughout.
With `CCOC(=O)NC(Nc1cc(Cl)ccc1OC)(C(F)(F)F)C(F)(F)F`, the TGI with U251 CNS, in the assay with SR leukemia, in the assay with UACC-62 melanoma, with EKVX NSCLC, in the assay on A498 renal and with SNB-19 CNS was more than 100 µM in each case. Also, the TGI in the assay on SNB-75 CNS and in the assay on UO-31 renal was more than 100 µM each time.
With `COc1cc(-c2ccc(N=Nc3ccc4c(S(=O)(=O)O)cc(S(=O)(=O)O)c(N)c4c3O)c(OC)c2)ccc1N=Nc1ccc2c(S(=O)(=O)O)cc(S(=O)(=O)O)c(N)c2c1O`, the TGI in the assay on U251 CNS, in the assay on UACC-62 melanoma, in the assay with EKVX NSCLC, in the assay on NCI/ADR-RES ovarian, in the assay on A498 renal and in the assay with OVCAR-4 ovarian was more than 100 µM in each case. Besides, the TGI in the assay on SNB-19 CNS, in the assay with SNB-75 CNS and with UO-31 renal was more than 100 µM in each case.
Regarding `COc1ccc(C2=[S+]C(c3ccccc3)(c3ccccc3)c3ccccc32)cc1`, the TGI with U251 CNS was 45.3 µM; in the assay on UACC-62 melanoma, 53.6 µM; in the assay on EKVX NSCLC, more than 100 µM; in the assay on NCI/ADR-RES ovarian, more than 100 µM; with A498 renal, 44.6 µM; in the assay with OVCAR-4 ovarian, 62.2 µM. Also, the TGI in the assay with SNB-19 CNS was more than 100 µM; in the assay on SNB-75 CNS it was 91.1 µM.
As for `COc1cccc2c1C(=O)c1c(O)c3c(c(O)c1C2=O)C[C@@](O)(C(=O)COC(=O)c1ccccc1)C[C@@H]3OC1CC(N)C(O)C(C)O1` (stereo not given in full), the GI50 with U251 CNS is 0.113 µM; with NCI/ADR-RES ovarian it was 1.44 µM; in the assay on A498 renal, 0.0771 µM; in the assay with SNB-75 CNS it was 0.0762 µM; with UO-31 renal, 0.497 µM. Besides, the TGI in the assay with U251 CNS was 0.273 µM; with SR leukemia it was 0.225 µM; in the assay on NCI/ADR-RES ovarian, 4.1 µM; in the assay with A498 renal it was 0.261 µM; with SNB-75 CNS it was 0.738 µM; in the assay on UO-31 renal, 2.06 µM.
As to `c1ccc2c(c1)c1ccccc1n2Cn1c2ccccc2c2ccccc21`, the TGI with U251 CNS, with SR leukemia, in the assay with UACC-62 melanoma, with EKVX NSCLC, with NCI/ADR-RES ovarian and with A498 renal was more than 100 µM in each case. Moreover, the TGI in the assay on OVCAR-4 ovarian, in the assay on SNB-19 CNS, in the assay with SNB-75 CNS and in the assay on UO-31 renal was more than 100 µM each time.
`C/C(=N\NC(=O)c1ccc(Cl)cc1)c1nc2ncccc2[nH]1`: the TGI in the assay on U251 CNS is more than 100 µM; in the assay with SR leukemia it was more than 100 µM; with UACC-62 melanoma it was 55.4 µM; in the assay on EKVX NSCLC, more than 100 µM; in the assay on NCI/ADR-RES ovarian, 50.1 µM; in the assay with A498 renal, more than 100 µM. The TGI was 47.9 µM with OVCAR-4 ovarian, more than 100 µM in the assay with SNB-19 CNS, 17.9 µM with SNB-75 CNS and more than 100 µM with UO-31 renal.
Regarding `O=C(N/N=C\c1cccc2ccccc12)Nc1ccccc1`, the TGI in the assay with U251 CNS, in the assay on SR leukemia, in the assay with UACC-62 melanoma, with NCI/ADR-RES ovarian, in the assay with A498 renal and with OVCAR-4 ovarian was more than 100 µM in each case. The TGI in the assay on SNB-19 CNS, in the assay with SNB-75 CNS and with UO-31 renal was more than 100 µM in each case.
For the compound `O=c1[nH]c(SCc2cccc([N+](=O)[O-])c2)nc2nc[nH]c12`, the TGI in the assay with U251 CNS, in the assay with SR leukemia, with UACC-62 melanoma, in the assay on EKVX NSCLC, in the assay on NCI/ADR-RES ovarian and in the assay with A498 renal was more than 100 µM in each case. In addition, the TGI in the assay with OVCAR-4 ovarian, in the assay on SNB-19 CNS, in the assay with SNB-75 CNS and in the assay on UO-31 renal was more than 100 µM each time.
In the case of `O=c1oc(-c2ccc(O)cc2)cc2cc(O)ccc12`, the TGI with EKVX NSCLC is more than 100 µM; in the assay with NCI/ADR-RES ovarian it was 47.9 µM; with A498 renal, 51.7 µM; with OVCAR-4 ovarian it was more than 100 µM; in the assay with SNB-19 CNS, 93.6 µM; with SNB-75 CNS it was more than 100 µM. The compound also had a TGI in the assay on UO-31 renal of 81.3 µM.
As for `Cc1ccc(Cl)cc1N=NC(=O)NNc1cc(Cl)ccc1C`, the TGI in the assay with U251 CNS was 59.6 µM; with SR leukemia, more than 100 µM; with UACC-62 melanoma it was 24.2 µM; in the assay with NCI/ADR-RES ovarian it was 63.9 µM; in the assay with A498 renal, 48.8 µM; in the assay on SNB-19 CNS, 43.2 µM. Also, the TGI with SNB-75 CNS is 36.3 µM; in the assay with UO-31 renal, 35.7 µM.
